A short description of experiment [1]: Antagonist activity at DOR in CD1 mouse vas deferens assessed as pEC50 for DPDPE-induced inhibition of EFS-evoked contractions at 1 uM incubated for 60 mins.
Experiment [2] is described as follows: Agonist activity at MOR in Dunkin-Hartley guinea pig ileum assessed as inhibition of EFS-induced contractions incubated for 60 mins.

pEC50: −log10 of the molar value.

For `C[C@H]1[C@H]2Cc3ccc(O)cc3[C@]1(C)CCN2CCC(=O)Nc1ccccc1`, the pEC50 in experiment [1] is 3.90.

Regarding `C[C@H]1[C@H]2Cc3ccc(O)cc3[C@]1(C)CCN2CCC(=O)Nc1cccc2ccccc12`, the pEC50 was 1.30 in experiment [2] and 5.10 in experiment [1].

The values above are taken from BindingDB's records for doi:10.1016/j.bmc.2016.05.005 (University of Catania, 2016).
